Activity calls are given as the source filed them. The rule behind the calls is not given here.
How the values were obtained:
HT-22 [1] = experiment: Neuroprotective activity against glutamate-induced cell death in mouse HT22 cells assessed as increase in cell viability at 1.6 uM pretreated for 2 hrs followed by glutamate-challenge and measured after 20 hrs by MTT assay (reference value: 23 +/- 3.57%); format: functional, cell-based
HT-22 [2] = experiment: Neuroprotective activity against glutamate-induced cell death in mouse HT22 cells assessed as cell viability at 12.5 uM pretreated for 2 hrs followed by glutamate-challenge and measured after 20 hrs by MTT assay (reference value: 23 +/- 3.57%); format: functional; conditions: for viability at 12.5 µM: read-out: Activity
HT-22 [3] = experiment: Cytotoxicity against mouse HT22 cells assessed as effect on cell viability at >25 uM after 2 hrs by MTT assay; format: cell-based; conditions: ht-22, 2 h

SMILES | Activity (HT-22 [1]) | Activity (HT-22 [2]) | Activity (HT-22 [3]) | viability at 12.5 µM (HT-22 [2]) [%]
COc1cc([C@@H](O)[C@H](COC(=O)/C=C/c2ccc(O)cc2)Oc2ccc(/C=C/COC(=O)/C=C/c3ccc(O)cc3)cc2OC)ccc1O | Active | Active | Toxic | 
COc1cc(C[C@@H](COC(=O)/C=C\c2ccc(O)cc2)[C@H](COC(=O)/C=C/c2ccc(O)cc2)Cc2ccc(O)c(OC)c2)ccc1O | Active |  | Toxic | 73
Cc1c(C)c2c(c(C)c1O)CCC(C)(C(=O)O)O2 (stereo not drawn) [TROLOX] |  |  |  | 52
COc1cc(C[C@@H](COC(=O)/C=C\c2ccc(O)cc2)[C@H](COC(=O)/C=C\c2ccc(O)cc2)Cc2ccc(O)c(OC)c2)ccc1O | Active |  | Toxic | 74
COc1cc([C@H](O)[C@H](COC(=O)/C=C/c2ccc(O)cc2)Oc2ccc(/C=C/COC(=O)/C=C\c3ccc(O)cc3)cc2OC)ccc1O | Active | Active | Toxic | 
COc1cc([C@@H](O)[C@H](COC(=O)/C=C\c2ccc(O)cc2)Oc2ccc(/C=C/COC(=O)/C=C/c3ccc(O)cc3)cc2OC)ccc1O | Active | Active | Toxic | 
COc1cc([C@H](O)[C@H](COC(=O)/C=C/c2ccc(O)cc2)Oc2ccc(/C=C/COC(=O)/C=C/c3ccc(O)cc3)cc2OC)ccc1O | Active | Active | Toxic | 
COc1cc([C@H](O)[C@H](COC(=O)/C=C\c2ccc(O)cc2)Oc2ccc(/C=C/COC(=O)/C=C/c3ccc(O)cc3)cc2OC)ccc1O | Active | Active | Toxic | 
COc1cc([C@@H](O)[C@H](COC(=O)/C=C/c2ccc(O)cc2)Oc2ccc(/C=C/COC(=O)/C=C\c3ccc(O)cc3)cc2OC)ccc1O | Active | Active | Toxic | 
COc1cc(C[C@@H](COC(=O)/C=C/c2ccc(O)cc2)[C@H](COC(=O)/C=C/c2ccc(O)cc2)Cc2ccc(O)c(OC)c2)ccc1O | Active |  | Toxic | 63
